According to patent US9920069B2, “Compounds for treatment of fluoroquinolone-resistant bacteria” (The Board of Trustees of the University of Illinois, priority 2014, dated 2018):
In brackets after ≈: the same amount, converted by molar mass. Entries after “also recorded” stand apart in the source; their conditions may differ.

Experiments:
human topoisomerase II = molecular target: T1, human topoisomerase II (Homo sapiens, UniProt P11388); assay: Human topoisomerase decatenation assay; type: biochemical; conditions: lowest inhibiting / highest without significant inhibition
T1 construct: purchased Inspiralis
T1 sequence (P11388 whole entry): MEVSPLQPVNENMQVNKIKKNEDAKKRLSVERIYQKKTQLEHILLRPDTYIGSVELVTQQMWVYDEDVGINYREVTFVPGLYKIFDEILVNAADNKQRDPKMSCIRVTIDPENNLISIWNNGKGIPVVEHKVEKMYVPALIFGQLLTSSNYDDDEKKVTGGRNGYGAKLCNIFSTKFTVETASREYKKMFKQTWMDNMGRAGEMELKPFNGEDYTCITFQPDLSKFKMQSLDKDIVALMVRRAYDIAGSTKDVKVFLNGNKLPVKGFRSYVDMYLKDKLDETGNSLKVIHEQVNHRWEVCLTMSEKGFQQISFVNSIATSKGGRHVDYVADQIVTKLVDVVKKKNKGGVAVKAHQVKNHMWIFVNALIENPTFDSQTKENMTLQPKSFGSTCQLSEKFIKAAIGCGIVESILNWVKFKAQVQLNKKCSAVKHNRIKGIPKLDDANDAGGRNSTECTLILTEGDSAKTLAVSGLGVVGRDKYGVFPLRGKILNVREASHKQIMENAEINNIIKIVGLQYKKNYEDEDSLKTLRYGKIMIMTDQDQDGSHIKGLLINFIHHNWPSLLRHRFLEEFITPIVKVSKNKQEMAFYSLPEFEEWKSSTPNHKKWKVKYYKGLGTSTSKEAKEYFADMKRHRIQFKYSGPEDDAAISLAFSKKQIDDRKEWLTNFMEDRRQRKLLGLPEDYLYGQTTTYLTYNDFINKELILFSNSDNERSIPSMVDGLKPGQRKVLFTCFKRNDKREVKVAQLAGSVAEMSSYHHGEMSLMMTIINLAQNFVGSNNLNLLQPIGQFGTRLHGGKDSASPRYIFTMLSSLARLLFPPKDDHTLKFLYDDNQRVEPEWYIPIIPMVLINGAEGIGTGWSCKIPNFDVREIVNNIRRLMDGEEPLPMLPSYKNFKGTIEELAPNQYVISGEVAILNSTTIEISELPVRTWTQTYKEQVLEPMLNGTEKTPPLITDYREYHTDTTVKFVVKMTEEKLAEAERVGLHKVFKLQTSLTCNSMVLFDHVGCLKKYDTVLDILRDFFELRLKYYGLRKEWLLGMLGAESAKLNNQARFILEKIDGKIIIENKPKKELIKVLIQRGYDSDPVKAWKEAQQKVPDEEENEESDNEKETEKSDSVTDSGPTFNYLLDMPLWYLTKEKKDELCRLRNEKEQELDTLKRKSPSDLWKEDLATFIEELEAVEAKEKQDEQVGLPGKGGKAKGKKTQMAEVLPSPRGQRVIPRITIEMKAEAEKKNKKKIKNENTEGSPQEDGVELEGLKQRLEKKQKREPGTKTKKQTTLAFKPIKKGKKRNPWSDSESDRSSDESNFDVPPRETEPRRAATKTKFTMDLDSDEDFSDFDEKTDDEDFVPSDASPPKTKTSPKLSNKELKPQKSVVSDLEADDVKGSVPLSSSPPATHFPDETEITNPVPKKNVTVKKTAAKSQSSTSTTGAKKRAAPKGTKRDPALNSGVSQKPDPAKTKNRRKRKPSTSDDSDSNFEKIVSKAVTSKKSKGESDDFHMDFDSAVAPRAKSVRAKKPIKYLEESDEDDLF
Procedure: The decatenation assay was performed with the Human Topo II Decatenation Assay Kit (Inspiralis) according to the manufacturer's instructions with minor modifications. First, a master mix was made containing 2 μL 10× assay buffer (500 mM Tris.HCl, pH 7.5, 1250 mM NaCl, 100 mM MgCl2, 50 mM DTT, 1000 μg/mL albumin), 0.67 μL 30 mM ATP, 1.34 μL 0.1 ng/μL kDNA, and 14.3 μL of nuclease free water per sample is made. DMSO or 30× compound is added to a 0.5 mL Eppendorf tube (0.67 μL per tube). The master mix is then added to each tube (18.3 μL per tube). Finally, 1 U of human topoisomerase (1 μL of 1 U/μL stock) is added to each tube for a final volume of 20 μL. The tubes are then incubated at 37° C. for 30 min. Reactions are stopped by the addition of 20 μL of 24:1 chloroform:isoamyl alcohol and 20 μL of stop dye (40% sucrose, 1 mM EDTA, 100 mM TrisHCl pH 7.5, 0.5 μg/mL bromophenol blue). Samples were run on 1% agarose gels containing 0.5 μg/mL ethidium bromide for 1 h at 110V or until the dye front was approximately halfway down the gel. Gels were imaged on a Molecular Imager Gel Doc XR+ (Biorad).

[1] = tested on: VRE clinical isolate S234; assay: organism not typed; type: cell-based, E. faecalis; conditions: read-out: MIC
Herring Sperm DNA = type: binding; conditions: 30 min, pH 7.5
Procedure: FIG. 12. In vitro toxicity. A) Hemolysis assay. Human red blood cells were co-incubated with compound. After incubation for 2 h at 37° C., the supernatant was analyzed for hemolysis. Each compound was tested either at 160 μg mL^−1 or at the highest concentration which its solubility allowed. Concentrations (μg mL^−1) are indicated in parenthesis. The negative control is DMSO and the positive control is water. Data shown is from three independent replicates±SEM. B) Ethidium bromide (EtBr) intercalation assay. Compounds were incubated with Herring Sperm DNA, ethidium bromide, and compound of interest for 30 minutes. The solutions were then analyzed for ethidium bromide fluorescence. Any decrease in percentage fluorescence is indicative of compound intercalation. Doxorubicin (DOX) was used as a positive control.
These assays were performed as previously described (Bair et al. J. Am. Chem. Soc. 132, 5469-5478, (2010)). The ability of DNM-2 to intercalate into DNA was measured by an ethidium bromide displacement assay. Herring Sperm DNA (34 μg/mL final) was premixed with buffer containing ethidium bromide (50 mM Tris base, 100 mM NaCl, 1 mM EDTA, 5 μM EtBr, pH=7.5). 95 μL of this solution was added to a 96 well plate containing 5 μL of DMSO solutions of compounds. […] Fluorescence was then read on a Gemini microplate reader (Molecular Devices, excitation=545 nm, emission=595 nm).

[2] = tested on: VRE clinical isolate S557; assay: organism not typed; type: cell-based, E. faecium; conditions: read-out: MIC
[3] = tested on: MRSA clinical isolate SAU.3024; assay: MIC, microdilution broth; type: cell-based, S. aureus; conditions: Staphylococcus aureus
Procedure: (§1) Susceptibility testing was performed in triplicate using the microdilution broth method as outlined by the Clinical and Laboratory Standards Institute CLSI^52. MH broth was used.

FQR MRSA (NRS3) = assay: Mouse sepsis model, survival; conditions: 50 mg kg^−1 oral gavage once-a-day 10 days; vs CIP and vehicle, P<0.005
[4] = tested on: VRE with the S83R mutation (GyrA); assay: microbe, parasite or virus in culture; type: cell-based; conditions: Enterococcus
[5] = tested on: MRSA clinical isolate SAU.846; assay: MIC, microdilution broth; type: cell-based, S. aureus; conditions: Staphylococcus aureus, MRSA, read-out: MIC
Procedure: as §1

[6] = tested on: normal (i.e. non-cancerous) cell lines; conditions: cited from earlier work

CCn1c(=O)cc(C)c2cc3c(C)cc(=O)n4c3c(c21)OC4 [DNM-2]
concentration inhibiting human topoisomerase II (human topoisomerase II): > 30 µM
MIC [1]: 0.25 µg/mL (≈ 0.844 µM)
concentration without significant DNA intercalation (Herring Sperm DNA): > 30 µM
MIC [2]: 0.25 µg/mL (≈ 0.844 µM)
MIC [3]: 0.125 µg/mL (≈ 0.422 µM)
survival of mice infected with FQR MRSA (NRS3) (FQR MRSA (NRS3)): significant survival difference; also recorded: effective

Cc1cc(=O)n(C)c2c3c4c(cc12)c(C)cc(=O)n4CO3 [DNM, deoxynybomycin]
MIC [4]: ≥ 1 µg/mL
MIC [5]: 0.031 µg/mL (≈ 0.11 µM)
toxicity to normal cell lines [6]: non-toxic
